This passage reports COX-2 inhibition results from patent US20170190726A9, “PRODRUG FOR RELEASE OF CISPLATIN AND CYCLOOXYGENASE INHIBITOR” (priority 2013, published 2017).

The target in this test is T1, ovine COX-2 (Ovis aries, UniProt P79208).
T1 construct: purchased Cayman Chemicals 560101
T1 sequence (P79208 17-603): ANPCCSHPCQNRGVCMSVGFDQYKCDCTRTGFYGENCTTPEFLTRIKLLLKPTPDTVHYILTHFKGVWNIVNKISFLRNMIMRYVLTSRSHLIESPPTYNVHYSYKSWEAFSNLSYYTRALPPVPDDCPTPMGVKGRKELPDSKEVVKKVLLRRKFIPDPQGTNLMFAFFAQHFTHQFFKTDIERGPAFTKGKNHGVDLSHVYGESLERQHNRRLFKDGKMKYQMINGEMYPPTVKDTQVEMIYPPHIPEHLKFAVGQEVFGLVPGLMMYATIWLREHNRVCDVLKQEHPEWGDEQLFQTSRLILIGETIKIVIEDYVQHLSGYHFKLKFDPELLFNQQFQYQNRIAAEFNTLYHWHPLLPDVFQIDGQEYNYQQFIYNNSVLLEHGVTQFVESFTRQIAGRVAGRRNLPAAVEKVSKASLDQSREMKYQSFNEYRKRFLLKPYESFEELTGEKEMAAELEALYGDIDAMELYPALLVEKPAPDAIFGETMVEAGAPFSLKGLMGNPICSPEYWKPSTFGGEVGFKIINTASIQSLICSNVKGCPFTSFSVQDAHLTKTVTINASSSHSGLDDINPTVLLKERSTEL
In words: In vitro COX inhibition assay (EIA), COX-2. It counts as biochemical. Conditions: ovine COX-2, EIA, 0.75-2 mM, aspirin as positive control. Here is the method:
An enzyme immunoassay (EIA) kit from Cayman Chemicals (catalogue number 560101) was used to assess the ability of Platin-A to inhibit ovine COX-1 and COX-2. COX inhibition assay was performed as per the manufacturer protocol. All stock solutions were prepared following manufactures instruction. This inhibition assay was carried out using a two-step process: COX reaction and EIA. COX reaction involved preparation of following samples.
(i) Background samples: COX-1 and COX-2 were inactivated by transferring 20 μL of each enzyme to an eppendorf tube and placing the tube in boiling water for 3 min. […] (ii) COX-1 or COX-2 100% initial activity samples: 950 μL of reaction buffer, 10 μL of heme, 10 μL of COX-1 or COX-2, and 20 μL of reaction buffer were added to each test tube. (iii) COX-1 or COX-2 inhibitor samples: 950 μL of reaction buffer, 10 μL of heme, 10 μL of COX-1 or COX-2 and 20 μL of COX-1 and COX-2 inhibitors under investigation, aspirin and Platin-A of different concentrations (0.25, 0.5, 0.75, 1, and 1.5 mM for COX-1; 0.75, 1, 1.25, 1.5, and 2 mM for COX-2) were added to each test tube.
All the samples were incubated for 5 min in water bath at 37° C. […]
For EIA, 100 μL of EIA buffer was added to non-specific binding well and 50 μL of EIA buffer to maximum binding wells. […] Absorbance was recorded at a wavelength of 410 nm using a plate reader.

Turning to `CC(=O)Oc1ccccc1C(=O)[O][Pt]([NH2])([NH2])([OH])([Cl])[Cl]` [Platin-A], the COX-2 inhibition result was “very similar inhibition of both COX-1 and COX-2 as shown by aspirin”.
